Like-named read-outs stand apart in the source and are kept apart here.

We go through 3 compounds from article PMC9592857, “Voltage dependence of the cannabinoid CB1 receptor” (Frontiers in Pharmacology, 2022).

What all share (type): cell-based
Test [1] addresses T1, CB1 receptor (Homo sapiens, UniProt P21554).
T1 construct: expressed in transfected cells; host or cells: Xenopus laevis oocytes injected with cRNA; plasmid was a gift of Ken Mackie
As to conditions: for mean time constant of deactivation: same oocyte at both potentials, 10 oocytes.

The target of another test is T2, GIRK channel (Homo sapiens, UniProt P48051+P48549).
T2 construct: expressed in transfected cells; host or cells: Xenopus laevis oocytes injected with cRNA
T2 sequence (P48549 1-501): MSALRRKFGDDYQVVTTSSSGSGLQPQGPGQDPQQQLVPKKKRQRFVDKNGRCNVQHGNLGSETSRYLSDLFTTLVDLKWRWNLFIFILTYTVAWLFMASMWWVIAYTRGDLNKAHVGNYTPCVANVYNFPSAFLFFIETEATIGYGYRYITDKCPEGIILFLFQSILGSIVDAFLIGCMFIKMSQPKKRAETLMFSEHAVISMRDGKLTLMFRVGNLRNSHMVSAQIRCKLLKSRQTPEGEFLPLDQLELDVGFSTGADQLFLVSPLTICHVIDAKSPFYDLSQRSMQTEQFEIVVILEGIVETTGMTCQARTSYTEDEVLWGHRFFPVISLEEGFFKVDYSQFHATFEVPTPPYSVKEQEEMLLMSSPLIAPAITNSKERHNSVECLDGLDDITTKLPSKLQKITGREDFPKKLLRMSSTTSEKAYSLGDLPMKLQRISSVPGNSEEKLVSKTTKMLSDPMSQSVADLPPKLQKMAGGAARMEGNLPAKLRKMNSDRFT
T2 sequence (P48051 1-423): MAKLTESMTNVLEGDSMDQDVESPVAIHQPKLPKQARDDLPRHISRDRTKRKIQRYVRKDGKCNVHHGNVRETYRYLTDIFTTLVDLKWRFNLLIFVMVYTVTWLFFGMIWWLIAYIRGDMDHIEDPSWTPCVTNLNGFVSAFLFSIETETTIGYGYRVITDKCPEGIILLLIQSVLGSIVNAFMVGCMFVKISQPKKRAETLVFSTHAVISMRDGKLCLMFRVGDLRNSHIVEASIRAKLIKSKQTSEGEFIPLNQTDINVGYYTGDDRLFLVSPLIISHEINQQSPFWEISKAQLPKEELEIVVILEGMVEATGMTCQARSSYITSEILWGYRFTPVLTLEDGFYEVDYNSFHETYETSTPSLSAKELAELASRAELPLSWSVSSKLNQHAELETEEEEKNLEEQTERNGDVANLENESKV
Nature of the test: Receptor-independent effect on GIRK channels in oocytes expressing the GIRK channel but not the CB1 receptor. As to conditions: for effect of application on GIRK currents: 10 µM, oocyte expressing the GIRK channel only; for direct effect on the GIRK channel: oocytes without CB1 receptor, any membrane potential. How it is done:
Figure S1. […] (A) A representative recording from an oocyte expressing the GIRK channel. […] (B) Current -Voltage (I-V) curve of IK before (black) and after (red) the application of 2-AG. The oocytes were voltage clamped to -80 mV and the currents after depolarizing pulses to various holding potentials from –80 mV to +40 mV at 10 mV increments were measured. Data is mean ± SEM from 7 oocytes. The difference between the two conditions is not significant (paired t-test, p>0.11 for all voltages).
Figure S2. Effect of AEA on GIRK channels. (A) A representative recording from an oocyte expressing the GIRK channel. […] (B) Current-voltage I-V curve of IK before (black) and after (red) the application of AEA. The oocytes were voltage clamped to -80 mV and the currents after depolarizing pulses to various holding potentials from –80 mV to +40 mV at 10 mV increments were measured. Data is mean ± SEM from 7 oocytes. The difference between the two conditions is not significant (paired t-test, p>0.13 for all voltages).
Figure S3. Effect of THC on GIRK channels. (A) A representative recording from an oocyte expressing the GIRK channel. […] (B) I-V curve of IK before (black) and after (red) the application of THC. The oocytes were voltage clamped to -80 mV and the currents after depolarizing pulses to various holding potentials from –80 mV to +40 mV at 10 mV increments were measured. Data is mean ± SEM from 5 oocytes. The difference between the two conditions is not significant (paired t-test, p>0.23 for all voltages).

Test [2] deals with T1, CB1 receptor.

T1 sequence (P21554 whole entry): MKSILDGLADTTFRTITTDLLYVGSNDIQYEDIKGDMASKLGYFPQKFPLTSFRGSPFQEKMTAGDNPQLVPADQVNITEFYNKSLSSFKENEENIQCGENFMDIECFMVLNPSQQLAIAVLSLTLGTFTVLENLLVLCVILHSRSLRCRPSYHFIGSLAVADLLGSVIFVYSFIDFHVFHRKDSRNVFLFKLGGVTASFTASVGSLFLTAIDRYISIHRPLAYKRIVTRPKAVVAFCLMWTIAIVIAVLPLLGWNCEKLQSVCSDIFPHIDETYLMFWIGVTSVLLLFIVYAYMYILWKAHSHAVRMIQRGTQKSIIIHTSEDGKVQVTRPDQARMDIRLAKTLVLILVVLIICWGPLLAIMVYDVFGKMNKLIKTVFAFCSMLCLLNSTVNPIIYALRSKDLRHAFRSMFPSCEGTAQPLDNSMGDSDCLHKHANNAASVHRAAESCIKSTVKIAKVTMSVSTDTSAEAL

For `CCCCC/C=C\C/C=C\C/C=C\C/C=C\CCCC(=O)OC(CO)CO` [2-AG, 2-Arachidonoylglycerol], the “mean time constant of deactivation” value at CB1 receptor [1] (+40 mV) is given as 42.6 ± 19.8. Further, the “dissociation time constant from the receptor (decay of GIRK current after washout)” value on CB1 receptor [1] (-80 mV, both agonists in the same oocytes, n = 20, mean±SD) worked out at 30.4 ± 11.7 s. Also, the “mean time constant of deactivation” value at CB1 receptor [1] (-80 mV) is listed as 25.4 ± 14.9. Moreover, on GIRK channel, the “effect of application on GIRK currents” value is “did not evoke GIRK currents or inhibited basal GIRK currents” and the “direct effect on the GIRK channel” value is “do not have any direct effect”. For the same compound, on CB1 receptor [2] (+40 mV versus -80 mV), the “enhancement of potency toward the CB1 receptor by depolarization” value is reported as “about 4 fold”. In addition, the “V50 (the voltage that shows half-maximal effect), Boltzmann fit” value at CB1 receptor [2] (relative activation by 100 nM agonist, -80 mV to +40 mV) is listed as −45 mV.

`CCCCC/C=C\C/C=C\C/C=C\C/C=C\CCCC(=O)NCCO` [AEA, anandamide]: on GIRK channel, the “effect of application on GIRK currents” value is reported as “did not evoke GIRK currents or inhibited basal GIRK currents” and the “direct effect on the GIRK channel” value is given as “do not have any direct effect”.

Take (-)-Δ9-Tetrahydrocannabinol [THC]: on GIRK channel, the “effect of application on GIRK currents” value was “did not evoke GIRK currents or inhibited basal GIRK currents” and the “direct effect on the GIRK channel” value is given as “do not have any direct effect”.
